In patent US10512624B2, “Long-chain amphipathic dicarboxylic acids for treatment of diabetes type-1” (Syndromex Ltd., priority 2016, dated 2019):

Key:
hepatic gluconeogenesis = assay: Suppression of hepatic gluconeogenesis in STZ diabetic rats (RT-PCR, Western blot, cAMP kit); type: in vivo, rat
Experimental: (§1) Administering a combination of Medica16αα and insulin was performed by treating STZ diabetic rats (FBG >300 mg/dl) with oral MEDICA16αα(15 mg/kg b.i.d) for five consecutive days, then MEDICA16αα-responsive rats were further treated with MEDICA16αα(15 mg/kg b.i.d) for 10 additional consecutive days (“STZ/MEDICA Res”), and MEDICA16αα non-responsive rats (FBG >250 mg/dl) were further treated for 10 additional consecutive days with either insulin Neutral Protamine Hagedorn (NPH) (3 u/kg b.i.d subcutaneously) (“STZ/NPH”), or with insulin NPH (3 u/kg b.i.d subcutaneously in combination with oral MEDICA16αα(15 mg/kg b.i.d) (“STZ/MEDICA NPH”).
Sampled frozen tissue was homogenized (Polytron) in lysis buffer (50 mM Tris HCl, pH 8.0, 1% Triton X-100, 1 mM EGTA, 1 mM EDTA, 150 mM NaCl, 5 mM NaPPi, 50 mM NaF, 1 mM PMSF, 1 mM Na Vanadate, 40 nM bpVfan and protease inhibitor cocktail (Sigma)), and centrifuged for 15 min at 12,500 rpm.
Protein lysates were prepared in sodium dodecyl sulfate (SDS) sample buffer (62 mM Tris (pH 6.8), 2.3% SDS, […] mercaptoethanol, 10% glycerol), and were subjected to SDS-PAGE, electro-transferred onto cellulose nitrate membranes (Schleicher & Schuell) and probed with the indicated first antibody, followed by HRP-labeled second antibody. Protein concentration was determined by BCA (Thermo Scientific). Bands were detected by ECL, and the intensity of individual bands was determined by densitometry using ImageJ 1.48 v software.
Sampled frozen tissue was homogenized (Polytron) in lysis buffer (50 mM Hepes (pH 7.4), 150 mM NaCl, 10% Glycerol, 1.5 mM MgCl2, 1 mM EGTA, 1% Triton, 50 mM β-glycerolphosphate, 25 mM NaF, 1 mM Na-vanadate, 40 nM bpVphen, protease inhibitor mix (Sigma) and 17.5 mg/ml octyl beta-D-glucopyranoside (Sigma)). Lysates were kept on ice for 30 min and centrifuged at 12000 rpm for 15 min. Lysates ([…]) were incubated for 4 h with protein A/G beads (Santa Cruz Biotechnology) pre-loaded with the indicated antibody. The immune-precipitate was rinsed 3 times with washing buffer (20 mM Hepes (pH 7.4), 150 mM NaCl, 0.1% Tx-100, 10% glycerol), re-suspended in SDS sample buffer, boiled for 8 min, and analyzed by SDS-PAGE.
Total RNA was prepared using the TRI reagent (Sigma Aldrich). First-strand cDNA used as template was synthesized by reverse transcription using oligo(dT) as primer and the Reverse-iTMAX First Strand Kit (ABgene, Epson). Glucose-6-phosphatase (G6Pase) and phosphoenolpyruvate carboxykinase (PEPCK) transcripts normalized by tubulin were quantified by real-time PCR (Rotor Gene RG-3000A) using SYBER green MasterMix (Absolute Syber Green ROX Mix, ABgene) and the following primers: […]
(§2) Pancreas and plasma insulin and glucagon content were determined by insulin (Millipore, Cat #RI-13K) and glucagon (Millipore, Cat # GL-32K) radioimmunoassay (RIA) kits. cAMP levels were measured by cAMP kit (Arbor Assays, DetectX Cat # K019-H1).

STZ diabetic rats = assay: Anti-diabetic efficacy in streptozotocin (STZ) diabetic rats (FBG, IPGTT, IPITT, fluid balance, insulin/glucagon content); type: in vivo, rat; details: sub-therapeutic insulin NPH 3 u/kg b.i.d alone, STZ diabetic rats
Experimental: Male Sprague-Dawley (SD) rats weighing 250-275 gr were fed ad libitum (Harlan Teklad 2018), had free access to water, and were kept on a 12:12 h light:dark cycle. Experimental type 1 diabetes (T1D) was induced in overnight fasted rats by a single intra-peritoneal injection of streptozotocin (STZ, 60 mg/kg body weight, Sigma Aldrich) freshly prepared in 0.1 M of cold citrate buffer (pH 4.5), followed by oral 10% glucose solution for the next 24 hours to overcome STZ-induced acute hypoglycemia. STZ diabetic rats (defined as having a fasting blood glucose (FBG) level higher than 300 mg/dl) were selected for further studies.
SHAM (control) rats were injected with 0.1 M of cold citrate buffer (pH 4.5). STZ diabetic or SHAM rats were dosed twice daily by gavage (orally) with 1% CMC (Sigma Aldrich C5678), or with HOOC—C(CH3)2—(CH2)12—C(CH3)2—COOH (2,2,15,15-tetramethylhexadecane-1,16-dioic acid) also termed herein “MEDICA16αα”, “Medica16αα” or M16αα(15 mg/kg body weight) suspended in 1% CMC, or injected intraperitoneal (i.p.) with Neutral Protamine Hagedorn (NPH) insulin (3 u/kg body weight b.i.d), as indicated.
as §1
Tail vein FBG was verified daily by a glucometer (Glucometer®, Accu-Check® Performa, Roche Diagnostics). Urine secretion, food and water consumption were measured in standard metabolic cages (Tecniplast™ Metabolic Cage Systems for Rodents) for 48 hour periods. Samples were collected and recorded every 12 hour.
Overnight fasted rats were injected i.p (1 gr glucose/kg bw) with 20% dextrose solution (Teva Medical). Tail vein blood was sampled on 0, 30, 60, 90 and 120 minutes following glucose injection.
Fasted rats (5 hours fast) were injected i.p (2 u/kg bw) with HumulinR insulin (Eli Lilly). Tail blood glucose levels were measured by glucometer at 0, 15, 30, 60, and 120 min following insulin injection.
as §2

T1D patients = details: insulin-treated (>1 u/kg body weight/day) T1D patients, meta-analysis (ref 12); cited from earlier work
[1] = system: STZ diabetic rat model, NOD mouse model; details: cited from earlier work
[2] = system: adipose adenylate cyclase; details: cited from earlier work

insulin NPH: Neutral Protamine Hagedorn (NPH) insulin, intermediate-acting insulin, used at sub-therapeutic dose 3 u/kg b.i.d
hepatic phospho-CREB(Ser179) (hepatic gluconeogenesis): ineffective | hepatic phospho-CRTC2(Ser171) (hepatic gluconeogenesis): not | hepatic glucose-6-phosphatase and PEPCK transcripts (hepatic gluconeogenesis; compared with STZ/CMC and SHAM/CMC): essentially unaffected | controlling glycemia (FBG, IPGTT, IPITT, fluid balance) (STZ diabetic rats): without any effect

CN(C)C(=N)N=C(N)N [metformin]
reduction in daily insulin usage (T1D patients): 1.4 u/d | normalizing STZ-induced diabetes, or preventing or delaying autoimmune T1D in NOD mouse [1]: ineffective or only marginally effective

CC(C)(CCCCCCCCCCC(C)(C)CC(=O)O)CC(=O)O [MEDICA16ββ, 3,3,14,14-tetramethylhexadecane-1,16-dioic acid]
adipose adenylate cyclase [2]: inhibit
